What all share (assay): LC-MS/MS product formation
Holding throughout (assay type): biochemical

One assay addresses T1, ZmBX12 (Zea mays, UniProt S5S8L0).
T1 construct: pASK-IBA37plus, N-terminal His tag, E. coli BL21(DE3), purified
T1 sequence (S5S8L0 1-370): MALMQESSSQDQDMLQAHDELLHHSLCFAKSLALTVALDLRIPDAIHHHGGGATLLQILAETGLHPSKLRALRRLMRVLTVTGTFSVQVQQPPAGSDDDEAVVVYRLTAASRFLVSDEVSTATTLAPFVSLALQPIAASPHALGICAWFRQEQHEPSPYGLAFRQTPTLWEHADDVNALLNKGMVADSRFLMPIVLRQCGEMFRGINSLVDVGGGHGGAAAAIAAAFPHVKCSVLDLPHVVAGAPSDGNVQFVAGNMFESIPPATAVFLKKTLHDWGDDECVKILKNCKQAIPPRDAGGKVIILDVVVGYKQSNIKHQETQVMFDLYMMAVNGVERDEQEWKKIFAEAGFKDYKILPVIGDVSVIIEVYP
The note with it: SAM cosubstrate 100 µM, 20 µM substrate, pH 7, 25 °C, 1 h.

A further assay has as its target T2, ZmBX14 (Zea mays, UniProt A0A1P8SEU3).
T2 construct: pASK-IBA37plus, N-terminal His tag, E. coli BL21(DE3), purified
T2 sequence (A0A1P8SEU3 1-366): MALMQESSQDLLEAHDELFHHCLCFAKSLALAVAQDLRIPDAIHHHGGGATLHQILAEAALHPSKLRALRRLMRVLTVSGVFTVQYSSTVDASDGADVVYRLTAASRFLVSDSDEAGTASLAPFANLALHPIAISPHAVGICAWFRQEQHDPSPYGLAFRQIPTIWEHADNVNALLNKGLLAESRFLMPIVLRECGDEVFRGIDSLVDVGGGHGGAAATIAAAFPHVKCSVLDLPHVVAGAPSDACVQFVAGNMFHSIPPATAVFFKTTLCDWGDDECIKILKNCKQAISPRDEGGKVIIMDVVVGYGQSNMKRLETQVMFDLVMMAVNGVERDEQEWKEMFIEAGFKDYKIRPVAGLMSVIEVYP
The note with it: SAM cosubstrate 100 µM, 20 µM substrate, pH 7, 25 °C, 1 h.

A further assay addresses T3, ZnBX10 (Zea nicaraguensis, UniProt Z9J3M6HYI4).
T3 construct: full-length ORF, codon-optimized synthetic gene in pET100/D-TOPO, N-terminal His tag, E. coli BL21(DE3), purified
T3 sequence (Z9J3M6HYI4 1-373): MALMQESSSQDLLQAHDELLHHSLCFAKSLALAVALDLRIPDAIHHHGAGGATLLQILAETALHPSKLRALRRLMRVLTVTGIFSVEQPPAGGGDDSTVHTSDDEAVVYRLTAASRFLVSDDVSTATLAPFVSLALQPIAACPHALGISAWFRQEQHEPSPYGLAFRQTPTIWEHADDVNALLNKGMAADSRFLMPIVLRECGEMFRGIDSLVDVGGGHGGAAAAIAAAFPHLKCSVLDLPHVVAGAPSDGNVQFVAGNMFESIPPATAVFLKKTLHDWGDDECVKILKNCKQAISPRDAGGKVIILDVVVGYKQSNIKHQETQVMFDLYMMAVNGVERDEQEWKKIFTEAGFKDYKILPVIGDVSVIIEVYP
The following applies: SAM cosubstrate 100 µM, 20 µM substrate, pH 7, 25 °C, 1 h.

A further assay concerns the target T4, ZmBX10 (Zea mays, UniProt S5S768).
T4 construct: pASK-IBA37plus, N-terminal His tag, E. coli BL21(DE3), purified
T4 sequence (S5S768 1-375): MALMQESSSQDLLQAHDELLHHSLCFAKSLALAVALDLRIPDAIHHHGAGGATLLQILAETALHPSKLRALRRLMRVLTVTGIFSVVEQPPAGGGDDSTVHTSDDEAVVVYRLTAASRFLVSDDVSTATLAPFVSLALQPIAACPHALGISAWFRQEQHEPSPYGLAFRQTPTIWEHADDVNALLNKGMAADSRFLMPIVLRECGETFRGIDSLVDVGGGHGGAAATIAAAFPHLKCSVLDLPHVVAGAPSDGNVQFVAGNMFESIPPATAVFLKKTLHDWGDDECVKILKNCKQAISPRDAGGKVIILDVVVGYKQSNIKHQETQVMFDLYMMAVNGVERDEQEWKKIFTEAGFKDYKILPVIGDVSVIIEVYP
The note with it: SAM cosubstrate 100 µM; 20 µM substrate; pH 7; 25 °C; 1 h; product isokaempferide.

A further assay has as its target T5, ZmBX11 (Zea mays, UniProt S5RK83).
T5 construct: pASK-IBA37plus, N-terminal His tag, E. coli BL21(DE3), purified
T5 sequence (S5RK83 1-375): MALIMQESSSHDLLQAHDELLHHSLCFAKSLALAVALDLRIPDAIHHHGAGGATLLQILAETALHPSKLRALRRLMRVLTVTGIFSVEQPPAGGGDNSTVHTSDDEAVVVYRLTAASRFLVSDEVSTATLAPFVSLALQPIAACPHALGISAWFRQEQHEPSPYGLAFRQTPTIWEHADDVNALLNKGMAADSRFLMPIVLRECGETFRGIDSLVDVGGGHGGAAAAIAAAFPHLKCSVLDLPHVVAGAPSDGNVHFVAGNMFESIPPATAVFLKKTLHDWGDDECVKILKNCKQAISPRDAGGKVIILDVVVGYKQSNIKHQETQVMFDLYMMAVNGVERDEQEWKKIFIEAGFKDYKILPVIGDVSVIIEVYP
The following applies: SAM cosubstrate 100 µM; 20 µM substrate; pH 7; 25 °C; 1 h; product isokaempferide.

The next assay addresses T6, SbFOMT2 (Sorghum bicolor, UniProt C5WYJ6).
T6 construct: gene SORBI_3001G354400; full-length ORF from leaf cDNA, in pET100/D-TOPO or pASK-IBA37plus, N-terminal His tag, E. coli BL21(DE3), purified
T6 sequence (C5WYJ6 1-365): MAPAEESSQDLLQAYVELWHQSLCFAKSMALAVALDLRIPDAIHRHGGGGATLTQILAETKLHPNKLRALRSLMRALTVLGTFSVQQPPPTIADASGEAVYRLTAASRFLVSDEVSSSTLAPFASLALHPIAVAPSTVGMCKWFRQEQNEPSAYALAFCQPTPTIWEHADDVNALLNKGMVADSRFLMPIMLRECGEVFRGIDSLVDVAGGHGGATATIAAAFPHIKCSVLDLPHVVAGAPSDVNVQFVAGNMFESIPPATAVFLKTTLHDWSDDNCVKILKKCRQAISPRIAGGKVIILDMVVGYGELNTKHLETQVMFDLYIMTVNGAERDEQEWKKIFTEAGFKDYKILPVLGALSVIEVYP
The note with it: SAM cosubstrate 100 µM; 20 µM substrate; pH 7; 25 °C; 1 h; flavonoid 5-O-methylation, trace isokaempferide.

Where [1] appears, read: product HDMBOA-Glc, positive control.

Structures are written as SMILES.

As for `COc1ccc2c(c1)O[C@H](O[C@@H]1O[C@H](CO)[C@@H](O)[C@H](O)[C@H]1O)C(=O)N2O` [DIMBOA-Glc, 2,4-dihydroxy-7-methoxy-1,4-benzoxazin-3-one glucoside], the LC-MS/MS product formation result at ZmBX12 (setting [1]) is “Besides ZmBX14 and ZmBX12, ZnBX10 also converted DIMBOA-Glc to HDMBOA-Glc”; on ZmBX14 (setting [1]) it was “Besides ZmBX14 and ZmBX12, ZnBX10 also converted DIMBOA-Glc to HDMBOA-Glc”; at ZnBX10 (product HDMBOA-Glc), “ZnBX10 also converted DIMBOA-Glc to HDMBOA-Glc”.
Consider `O=c1c(O)c(-c2ccc(O)cc2)oc2cc(O)cc(O)c12` [kaempferol], for which the LC-MS/MS product formation entry at ZmBX12 (product isokaempferide) is “with ZmBX12 as the most active OMT, followed by ZmBX10, ZmBX11, and ZmBX14”; on ZmBX14 (lowest activity of the maize BX OMTs) it was “with ZmBX12 as the most active OMT, followed by ZmBX10, ZmBX11, and ZmBX14”; at ZmBX10, “ZmBX10-12 and ZnBX10 produced substantial amounts of the 3-O-methylated derivative isokaempferide”; on ZmBX11, “ZmBX10-12 and ZnBX10 produced substantial amounts of the 3-O-methylated derivative isokaempferide”; at ZnBX10 (product isokaempferide), “ZmBX10-12 and ZnBX10 produced substantial amounts of the 3-O-methylated derivative isokaempferide”; at SbFOMT2, “ZmFOMT2 and SbFOMT2 produced only trace amounts of this compound”.

These data come from article PMC8839659, “Evolution of DIMBOA-Glc O-Methyltransferases from Flavonoid O-Methyltransferases in the Grasses” (Molecules, 2022).
